In ChEMBL document CHEMBL5346873, “Strategic modification of low-activity natural antimicrobial peptides confers antibacterial potential in vitro and in vivo” (Eur J Med Chem, 2023):
Values after ≈ are worked out from the molar mass of the structure shown.

Key:
[1] = tested on: Staphylococcus aureus; assay: Bactericidal activity against Staphylococcus aureus incubated for overnight; assay type: functional
[2] = Hemolytic activity in human RBC at 100 ug/ml incubated for 1 hr; assay type: toxicity, cell-based, Erythrocyte; conditions: human red blood cells (erythrocytes), at 100 µg/mL, read-out: Activity
[3] = tested on: Acinetobacter baumannii; assay: Bactericidal activity against Acinetobacter baumannii incubated for overnight; assay type: functional
[4] = tested on: Salmonella enterica; assay: Antibacterial activity against Salmonella enterica incubated for 16 to 20 hrs; assay type: functional; conditions: time 16-20 hrs
[5] = tested on: Staphylococcus haemolyticus; assay: Antibacterial activity against Staphylococcus haemolyticus incubated for 16 to 20 hrs; assay type: functional; conditions: time 16-20 hrs
[6] = tested on: Streptococcus agalactiae; assay: Bactericidal activity against Streptococcus agalactiae incubated overnight; assay type: functional
[7] = tested on: Salmonella enterica; assay: Bactericidal activity against Salmonella enterica incubated overnight; assay type: functional
[8] = tested on: Vibrio vulnificus; assay: Antibacterial activity against Vibrio vulnificus V2 incubated for 16 to 20 hrs; assay type: functional; conditions: time 16-20 hrs
[9] = tested on: Pseudomonas aeruginosa; assay: Bactericidal activity against Pseudomonas aeruginosa incubated overnight; assay type: functional
[10] = tested on: Vibrio alginolyticus; assay: Antibacterial activity against Vibrio alginolyticus incubated for 16 to 20 hrs; assay type: functional; conditions: time 16-20 hrs
[11] = tested on: Streptococcus iniae; assay: Antibacterial activity against Streptococcus iniae incubated for 16 to 20 hrs; assay type: functional; conditions: time 16-20 hrs
[12] = tested on: Escherichia coli; assay: Bactericidal activity against Escherichia coli incubated overnight; assay type: functional
[13] = tested on: Aeromonas hydrophila; assay: Antibacterial activity against Aeromonas hydrophila incubated for 16 to 20 hrs; assay type: functional; conditions: time 16-20 hrs
[14] = tested on: Candida tropicalis; assay: Fungicidal activity against Candida tropicalis incubated overnight; assay type: functional
[15] = tested on: Aeromonas hydrophila; assay: Bactericidal activity against Aeromonas hydrophila incubated overnight; assay type: functional
[16] = tested on: Vibrio anguillarum; assay: Bactericidal activity against Listonella anguillarum incubated overnight; assay type: functional
[17] = tested on: Klebsiella pneumoniae; assay: Antibacterial activity against NDM Klebsiella pneumoniae incubated for 16 to 20 hrs; assay type: functional; conditions: time 16-20 hrs
[18] = tested on: Staphylococcus haemolyticus; assay: Bactericidal activity against Staphylococcus haemolyticus incubated overnight; assay type: functional
[19] = tested on: Streptococcus agalactiae; assay: Antibacterial activity against Streptococcus agalactiae incubated for 16 to 20 hrs; assay type: functional; conditions: time 16-20 hrs
[20] = tested on: Vibrio vulnificus; assay: Bactericidal activity against Vibrio vulnificus 204 incubated overnight; assay type: functional
[21] = tested on: Vibrio vulnificus; assay: Antibacterial activity against Vibrio vulnificus V1 incubated for 16 to 20 hrs; assay type: functional; conditions: time 16-20 hrs
[22] = tested on: Klebsiella oxytoca; assay: Antibacterial activity against Klebsiella oxytoca incubated for 16 to 20 hrs; assay type: functional; conditions: time 16-20 hrs
[23] = tested on: Enterococcus faecalis; assay: Bactericidal activity against Enterococcus faecalis incubated overnight; assay type: functional
[24] = tested on: Nakaseomyces glabratus; assay: Antifungal activity against Candida glabrata incubated for 16 to 20 hrs; assay type: functional; conditions: time 16-20 hrs
[25] = tested on: Nakaseomyces glabratus; assay: Fungicidal activity against Candida glabrata incubated overnight; assay type: functional
[26] = tested on: Salmonella typhimurium; assay: Antibacterial activity against Salmonella typhimurium incubated for 16 to 20 hrs; assay type: functional, Salmonella enterica subsp. enterica serovar Typhimurium; conditions: Salmonella enterica; time 16-20 hrs
[27] = tested on: Klebsiella pneumoniae; assay: Bactericidal activity against NDM Klebsiella pneumoniae incubated overnight; assay type: functional
[28] = tested on: Klebsiella aerogenes; assay: Bactericidal activity against Enterobacter aerogenes incubated overnight; assay type: functional
[29] = tested on: Klebsiella oxytoca; assay: Bactericidal activity against Klebsiella oxytoca incubated overnight; assay type: functional
[30] = tested on: Streptococcus iniae; assay: Bactericidal activity against Streptococcus iniae incubated overnight; assay type: functional
[31] = tested on: Enterococcus faecium; assay: Bactericidal activity against Enterococcus faecium incubated overnight; assay type: functional
[32] = tested on: Vibrio vulnificus; assay: Bactericidal activity against Vibrio vulnificus V2 incubated overnight; assay type: functional
[33] = tested on: Edwardsiella tarda; assay: Antibacterial activity against Edwardsiella tarda incubated for 16 to 20 hrs; assay type: functional; conditions: time 16-20 hrs
[34] = tested on: Salmonella typhimurium; assay: Bactericidal activity against Salmonella typhimurium incubated overnight; assay type: functional, Salmonella enterica subsp. enterica serovar Typhimurium; conditions: Salmonella enterica
[35] = tested on: Vibrio vulnificus; assay: Antibacterial activity against Vibrio vulnificus V3 incubated for 16 to 20 hrs; assay type: functional; conditions: time 16-20 hrs
[36] = tested on: Vibrio vulnificus; assay: Bactericidal activity against Vibrio vulnificus V3 incubated overnight; assay type: functional
[37] = tested on: Enterococcus faecium; assay: Antibacterial activity against Enterococcus faecium incubated for 16 to 20 hrs; assay type: functional; conditions: time 16-20 hrs
[38] = tested on: Enterococcus faecalis; assay: Antibacterial activity against Enterococcus faecalis incubated for 16 to 20 hrs; assay type: functional; conditions: time 16-20 hrs
[39] = tested on: Vibrio alginolyticus; assay: Bactericidal activity against Vibrio alginolyticus incubated overnight; assay type: functional
[40] = tested on: Candida tropicalis; assay: Antifungal activity against Candida tropicalis incubated for 16 to 20 hrs; assay type: functional; conditions: time 16-20 hrs
[41] = tested on: Pseudomonas aeruginosa; assay: Antibacterial activity against Pseudomonas aeruginosa incubated for 16 to 20 hrs; assay type: functional; conditions: time 16-20 hrs
[42] = tested on: Vibrio harveyi; assay: Bactericidal activity against Vibrio harveyi incubated overnight; assay type: functional
[43] = tested on: Vibrio harveyi; assay: Antibacterial activity against Vibrio harveyi incubated for 16 to 20 hrs; assay type: functional; conditions: time 16-20 hrs
[44] = tested on: Klebsiella aerogenes; assay: Antibacterial activity against Enterobacter aerogenes incubated for 16 to 20 hrs; assay type: functional; conditions: time 16-20 hrs
[45] = tested on: Escherichia coli; assay: Antibacterial activity against Escherichia coli incubated for 16 to 20 hrs; assay type: functional; conditions: time 16-20 hrs
[46] = tested on: Vibrio vulnificus; assay: Bactericidal activity against Vibrio vulnificus V1 incubated overnight; assay type: functional
[47] = tested on: Edwardsiella tarda; assay: Bactericidal activity against Edwardsiella tarda incubated overnight; assay type: functional
[48] = tested on: Vibrio vulnificus; assay: Antibacterial activity against Vibrio vulnificus 204 incubated for 16 to 20 hrs; assay type: functional; conditions: time 16-20 hrs
[49] = tested on: Vibrio anguillarum; assay: Antibacterial activity against Listonella anguillarum incubated for 16 to 20 hrs; assay type: functional; conditions: time 16-20 hrs
[50] = tested on: Vibrio vulnificus; assay: Antibacterial activity against Vibrio vulnificus 204 assessed as induction of resistance development by measuring fold increase in MIC measured after 15 passages; assay type: functional

Compound: H-GKCIWKAIFKGAKKFLKKLVNP-OH
- MBC [1]: 50 µg/mL
- hemolysis at 1 h, 100 ug/ml [2]: 72.4%
- MBC [3]: 1.56 µg/mL

Compound: H-FKWKSVLKGVKGFVDGYF-OH
- MBC [1]: > 100 µg/mL
- hemolysis at 1 h, 100 ug/ml [2]: 99.8%
- MBC [3]: > 100 µg/mL

Compound: H-GKCIAKAIFKGAKKFLKKLVNP-OH
- MBC [1]: > 100 µg/mL
- hemolysis at 1 h, 100 ug/ml [2]: 16.7%
- MBC [3]: 3.12 µg/mL

Compound: H-FKWKSVLKGVDGFVDGYF-OH
- MBC [1]: > 100 µg/mL
- hemolysis at 1 h, 100 ug/ml [2]: 101%
- MBC [3]: > 100 µg/mL

Compound: H-GECIWDAIFHGAKHFLHRLVNP-OH
- MBC [1]: > 100 µg/mL
- hemolysis at 1 h, 100 ug/ml [2]: 28.5%
- MBC [3]: > 100 µg/mL

Compound: H-FKDKSVLKIVKIFVKIYF-OH
- MBC [1]: > 100 µg/mL
- hemolysis at 1 h, 100 ug/ml [2]: 2.2%
- MBC [3]: > 100 µg/mL

Compound: CC1(C)S[C@@H]2[C@H](NC(=O)[C@H](N)c3ccccc3)C(=O)N2[C@H]1C(=O)O [AMPICILLIN]
- MIC [4]: 3.12 µg/mL (≈ 8.94 µM)
- MIC [5]: < 1.56 µg/mL
- MBC [6]: < 1.56 µg/mL
- MBC [7]: 6.25 µg/mL (≈ 17.9 µM)
- MIC [8]: 50 µg/mL (≈ 143 µM)
- MBC [9]: > 100 µg/mL
- MIC [10]: > 100 µg/mL
- MIC [11]: 6.25 µg/mL (≈ 17.9 µM)
- MBC [12]: 6.25 µg/mL (≈ 17.9 µM)
- MIC [13]: > 100 µg/mL
- MFC [14]: > 100 µg/mL
- MBC [15]: > 100 µg/mL
- MBC [16]: > 100 µg/mL
- MIC [17]: > 100 µg/mL
- MBC [18]: < 1.56 µg/mL
- MIC [19]: < 1.56 µg/mL
- MBC [20]: > 100 µg/mL
- MIC [21]: 50 µg/mL (≈ 143 µM)
- MIC [22]: > 100 µg/mL
- MBC [23]: > 100 µg/mL
- MIC [24]: > 100 µg/mL
- MFC [25]: > 100 µg/mL
- MIC [26]: > 100 µg/mL
- MBC [27]: > 100 µg/mL
- MBC [28]: 100 µg/mL (≈ 286 µM)
- MBC [29]: > 100 µg/mL
- MBC [30]: 6.25 µg/mL (≈ 17.9 µM)
- MBC [31]: < 1.56 µg/mL
- MBC [32]: 50 µg/mL (≈ 143 µM)
- MIC [33]: 3.12 µg/mL (≈ 8.94 µM)
- MBC [34]: > 100 µg/mL
- MIC [35]: 50 µg/mL (≈ 143 µM)
- MBC [36]: 50 µg/mL (≈ 143 µM)
- MIC [37]: < 1.56 µg/mL
- MIC [38]: 100 µg/mL (≈ 286 µM)
- MBC [39]: > 100 µg/mL
- MIC [40]: > 100 µg/mL
- MIC [41]: > 100 µg/mL
- MBC [42]: > 100 µg/mL
- MIC [43]: > 100 µg/mL
- MIC [44]: 50 µg/mL (≈ 143 µM)
- MIC [45]: 3.12 µg/mL (≈ 8.94 µM)
- MBC [46]: 50 µg/mL (≈ 143 µM)
- MBC [47]: 3.12 µg/mL (≈ 8.94 µM)
- MIC [48]: > 100 µg/mL
- MIC [49]: > 100 µg/mL

Compound: H-FKWKSVLKIVKIFVKIYF-OH
- MBC [1]: > 100 µg/mL
- hemolysis at 1 h, 100 ug/ml [2]: 14.2%
- MBC [3]: 12.5 µg/mL

Compound: CN(C)[C@@H]1C(O)=C(C(N)=O)C(=O)[C@@]2(O)C(O)=C3C(=O)c4c(O)cccc4[C@@](C)(O)[C@H]3C[C@@H]12 [TETRACYCLINE]
- fold change (FC) [50]: 128

Compound: H-GKCIAKAIFKGAKKLLKKLVNP-OH
- MBC [1]: 100 µg/mL
- hemolysis at 1 h, 100 ug/ml [2]: 25.8%
- MBC [3]: 3.12 µg/mL
